Laboratory results taken from PMC13070491, “Single-nucleus transcriptomics, pharmacokinetics, and pharmacodynamics of CDK4/6 and mTOR inhibition in a Phase 0/1 trial of recurrent high-grade glioma” (Neuro-Oncology, 2025).

System: GB126, GB239 and GB86 patient-derived cell lines
Test: In vitro single-cell RNA sequencing, analyses across the cell lines (pseudobulk differential gene expression, GSEA, non-cycling cells)
Assay type: cell-based, human
Protocol: Patient-derived glioma stem cell lines (GSCs; GB126, GB86, and GB239) were established from resected GBM tumor tissue. Cell lines were genetically profiled for mutations and copy number aberrations using the IvySeq custom gene panel. […] GB239 was derived from a tumor sample included in this Phase 0 trial (tumor sample: 100-0039). All human GSCs were cultured as described previously.[12]
Following the fifth day of drug exposure, cells were harvested, cryopreserved to be processed at a later point, or immediately processed for single-cell RNA sequencing (10x Genomics, 3’ version 3). The single-cell RNA sequencing data were then processed via cellranger count and Seurat. Briefly, cells were filtered out based on the following criteria: minimum number of genes detected >500 and <10 000 with a maximum percentage of mitochondrial genes set to 10%. Statistical assessment was made between the malignant proportions of each cell state using a 2-sided paired t-test.
Descriptive statistics of the clinical data are included in Table 1. Comparisons between groups were conducted using a 2-sided or paired 2-sided t-test, where indicated. P < .05 was considered significant. Multiple hypothesis test corrections (ie, false discovery rate correction) were applied for snRNAseq pseudobulk differential expression analysis.

CN(C)C(=O)c1cc2cnc(Nc3ccc(N4CCNCC4)cn3)nc2n1C1CCCC1 [Ribociclib, ribociclib]
CDK4 gene expression following ribociclib treatment (5 days vs DMSO, single-cell RNAseq): reduced but remained high | NPC-like proportion, cells not actively cycling (ribociclib vs DMSO 5 days, paired t-test P = 1.4E-06): decrease | AC-like proportion, cells not actively cycling (ribociclib vs DMSO 5 days, paired t-test P = 2.6E-03): increase
